Active and inactive are the calls of the source.

The target in one test is T1, Protein skinhead-1 (Caenorhabditis elegans, UniProt P34707).
T1 sequence (P34707 whole entry): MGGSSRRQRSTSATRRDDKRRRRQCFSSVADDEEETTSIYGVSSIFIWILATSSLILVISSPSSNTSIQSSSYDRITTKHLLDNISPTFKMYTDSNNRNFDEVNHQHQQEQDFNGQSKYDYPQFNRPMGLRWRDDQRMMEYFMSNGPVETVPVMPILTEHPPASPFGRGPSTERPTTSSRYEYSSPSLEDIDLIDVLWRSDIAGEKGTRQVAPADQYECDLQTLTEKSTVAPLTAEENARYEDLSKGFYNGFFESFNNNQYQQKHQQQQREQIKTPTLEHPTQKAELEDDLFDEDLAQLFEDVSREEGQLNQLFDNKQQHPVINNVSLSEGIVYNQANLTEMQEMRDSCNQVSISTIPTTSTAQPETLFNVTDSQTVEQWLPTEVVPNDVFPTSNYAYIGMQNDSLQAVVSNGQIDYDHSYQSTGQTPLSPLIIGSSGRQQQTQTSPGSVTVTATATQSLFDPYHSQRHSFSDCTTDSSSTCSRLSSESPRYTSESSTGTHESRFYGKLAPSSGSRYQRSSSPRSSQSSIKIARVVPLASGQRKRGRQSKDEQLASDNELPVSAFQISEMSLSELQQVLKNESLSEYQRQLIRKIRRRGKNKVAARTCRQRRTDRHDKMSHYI
Format: functional.

For a further test, the target named is Large T antigen (Simian virus 40, UniProt P03070). Format: functional, Betapolyomavirus macacae.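 Further: Confirmatory-stage PubChem screen for compounds that inhibit SV40 T antigen.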
The nature of test [1]: HEp-2 cell cytotoxicity, dose response, cytotoxicity control for RSV inhibitor project, HTS (AID 2410). Format: functional. The following applies: human respiratory syncytial virus.
A short description of another test: cells. Format: functional.
The next test has as its system H4. Nature of the test: Luminescence Cell-Based Dose Response HTS to Identify Activators of 5'UTR Stem-Loop Driven Prion Protein mRNA Translation in H4 Neuroglioblastoma Cells. [Related pubchem assays: 1829 (Project Summary), 1814 (Primary HTS)]. The format is functional. The following applies: Homo sapiens.
Test [2] in a line: Luminescence Cell-Based Dose Response HTS to Identify Activators of Luciferase Translation or Activity in H4 […] Cells. [Related pubchem assays: 1829 (Project Summary), 1814 (Primary HTS)]. Format: functional.
Another test concerns the target T2, Protein RecA (Mycobacterium tuberculosis, UniProt P9WHJ3).
T2 sequence (P9WHJ3 whole entry): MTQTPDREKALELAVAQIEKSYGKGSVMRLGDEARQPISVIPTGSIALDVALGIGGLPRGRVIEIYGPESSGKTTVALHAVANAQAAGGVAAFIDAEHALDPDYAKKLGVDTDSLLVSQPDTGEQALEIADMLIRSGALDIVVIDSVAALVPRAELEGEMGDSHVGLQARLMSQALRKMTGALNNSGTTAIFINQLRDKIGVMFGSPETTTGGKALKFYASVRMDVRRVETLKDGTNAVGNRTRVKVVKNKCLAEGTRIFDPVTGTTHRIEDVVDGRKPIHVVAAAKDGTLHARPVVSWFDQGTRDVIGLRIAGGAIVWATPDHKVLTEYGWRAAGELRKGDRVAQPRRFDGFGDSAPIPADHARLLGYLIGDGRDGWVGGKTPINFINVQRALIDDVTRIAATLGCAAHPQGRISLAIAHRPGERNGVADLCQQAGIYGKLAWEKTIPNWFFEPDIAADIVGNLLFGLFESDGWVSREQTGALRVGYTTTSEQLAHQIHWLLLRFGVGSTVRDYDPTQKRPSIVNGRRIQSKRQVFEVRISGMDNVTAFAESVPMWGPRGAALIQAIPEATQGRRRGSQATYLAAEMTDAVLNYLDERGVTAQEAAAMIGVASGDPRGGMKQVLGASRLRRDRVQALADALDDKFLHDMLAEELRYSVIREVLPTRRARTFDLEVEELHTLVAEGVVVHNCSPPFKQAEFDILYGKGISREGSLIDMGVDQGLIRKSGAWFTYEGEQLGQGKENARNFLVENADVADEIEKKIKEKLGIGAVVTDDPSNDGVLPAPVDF
Nature of the test: Fluorescence Cell-Free Homogeneous Dose Retest to Identify Inhibitors of RecA-Intein Splicing Activity. [Related pubchem assays (depositor defined):AID2097, AID2223, AID489010, AID492950]. Format: functional.

Test [3] addresses T3, Replicative DNA helicase DnaB (Mycobacterium tuberculosis, UniProt P9WMR3).
T3 sequence (P9WMR3 whole entry): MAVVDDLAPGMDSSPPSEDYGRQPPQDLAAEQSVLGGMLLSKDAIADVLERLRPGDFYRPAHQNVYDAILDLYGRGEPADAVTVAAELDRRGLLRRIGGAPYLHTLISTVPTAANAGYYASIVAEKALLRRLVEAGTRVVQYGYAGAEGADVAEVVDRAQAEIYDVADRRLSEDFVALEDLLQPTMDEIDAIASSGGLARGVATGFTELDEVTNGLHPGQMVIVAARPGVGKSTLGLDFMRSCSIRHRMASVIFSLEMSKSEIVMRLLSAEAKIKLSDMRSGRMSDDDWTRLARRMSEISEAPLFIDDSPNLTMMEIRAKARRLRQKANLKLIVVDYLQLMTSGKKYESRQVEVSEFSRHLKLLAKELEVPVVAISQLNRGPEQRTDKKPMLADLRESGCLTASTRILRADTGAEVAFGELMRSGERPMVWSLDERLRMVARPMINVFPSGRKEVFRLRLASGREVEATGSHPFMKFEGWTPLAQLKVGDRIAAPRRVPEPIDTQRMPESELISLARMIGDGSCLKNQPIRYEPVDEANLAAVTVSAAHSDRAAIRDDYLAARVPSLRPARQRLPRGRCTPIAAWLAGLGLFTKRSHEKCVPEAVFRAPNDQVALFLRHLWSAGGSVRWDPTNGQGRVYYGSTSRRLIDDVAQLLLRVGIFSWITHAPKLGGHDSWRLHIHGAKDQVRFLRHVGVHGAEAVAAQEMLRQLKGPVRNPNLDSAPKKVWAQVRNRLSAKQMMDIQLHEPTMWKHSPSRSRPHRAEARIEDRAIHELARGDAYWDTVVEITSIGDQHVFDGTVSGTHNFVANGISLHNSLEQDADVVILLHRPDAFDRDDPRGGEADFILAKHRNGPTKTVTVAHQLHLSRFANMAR
The test can be described thus: DnaB intein splicing inhibitors, dose response, biochemical, cell-free fluorescence (AID 449749). Format: functional.

Test [4] can be described thus: C. albicans growth with fluconazole, confirmation, fluorescence, retest (AID 2467). Format: functional, cell-based.
Test [5] is described as follows: NIH-3T3 fibroblast cytotoxicity, dose response, cytotoxicity control, cell-based, fluorescence, Alamar Blue, secondary assay (AID 2327).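 Further: NIH-3T3 mouse fibroblasts cultured with fluconazole at 8 µg/mL.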 Format: functional. (In general: The colour change of resazurin is a common sign of viable cells or microbes.)
Test [6] is described as follows: growth suppression of beta-catenin-knockout colon cells, dose response, cell-based, HCT116, human colon tumor (AID 1045).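 Further: HCT116 colon tumor cells with beta catenin knocked out; cells exposed to compound for 60 hours.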 Format: functional.
Test [7] addresses T4, Calpain-2 catalytic subunit (Sus scrofa, UniProt P43367).
T4 sequence (P43367 whole entry): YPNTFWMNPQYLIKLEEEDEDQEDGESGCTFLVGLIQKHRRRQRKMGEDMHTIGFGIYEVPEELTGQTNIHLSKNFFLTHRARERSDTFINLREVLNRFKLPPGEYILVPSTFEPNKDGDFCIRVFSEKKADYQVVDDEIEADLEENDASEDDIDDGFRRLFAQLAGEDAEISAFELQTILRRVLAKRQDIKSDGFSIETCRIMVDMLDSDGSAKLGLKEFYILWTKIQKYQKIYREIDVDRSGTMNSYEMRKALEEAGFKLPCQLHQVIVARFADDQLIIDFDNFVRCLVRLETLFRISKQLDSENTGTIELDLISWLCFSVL
Nature of the test: pig calpain II inhibitor potency, dose response, biochemical, fluorogenic peptide substrate (AID 1420). The format is functional.

Test [8] in a line: Shn3 3'UTR reporter inhibitors, dose response, cell-based, Clone20 osteoblasts, firefly luciferase, cherry-picked (AID 624132).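 Further: firefly luciferase luminescence from reporter carrying the Shn3 3'UTR in osteoblasts.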 The format is functional.
The subject of another test is H9c2. Nature of the test: cells. The following applies: Rattus norvegicus, H9c2, Myocardium. The format is functional, cell-based.

Sequence of Large T antigen (P03070 whole entry): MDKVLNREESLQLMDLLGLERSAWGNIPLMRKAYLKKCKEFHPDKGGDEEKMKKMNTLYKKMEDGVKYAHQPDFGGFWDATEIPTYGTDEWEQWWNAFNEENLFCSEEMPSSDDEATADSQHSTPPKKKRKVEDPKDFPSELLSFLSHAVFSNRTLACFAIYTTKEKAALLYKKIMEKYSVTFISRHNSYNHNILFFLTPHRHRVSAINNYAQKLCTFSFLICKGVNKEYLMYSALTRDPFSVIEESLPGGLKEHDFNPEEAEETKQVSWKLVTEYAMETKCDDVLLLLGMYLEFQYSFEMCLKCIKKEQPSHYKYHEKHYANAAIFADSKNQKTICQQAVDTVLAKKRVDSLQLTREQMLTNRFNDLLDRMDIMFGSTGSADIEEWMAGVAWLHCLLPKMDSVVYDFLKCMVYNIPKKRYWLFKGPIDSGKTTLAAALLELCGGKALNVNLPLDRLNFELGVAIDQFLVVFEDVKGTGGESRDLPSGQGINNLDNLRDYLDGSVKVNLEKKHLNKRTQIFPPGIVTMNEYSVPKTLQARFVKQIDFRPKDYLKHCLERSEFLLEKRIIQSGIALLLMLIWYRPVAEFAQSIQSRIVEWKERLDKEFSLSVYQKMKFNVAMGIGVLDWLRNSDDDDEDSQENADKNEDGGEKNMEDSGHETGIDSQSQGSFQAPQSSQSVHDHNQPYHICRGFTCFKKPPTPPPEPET

As to `COc1ccc2c(c1)CC/C(=C/c1ccco1)C2=O`, the IC50 (as a rule, the concentration at which inhibition is half-maximal) on Protein skinhead-1 is 28.9 µM (active). Still for that read-out and setting: under `CCC(C(=O)N(C(C)C)C(C)C)c1ccccc1` (stereo not drawn) stands > 100 µM (inactive). As for `CNC(=O)Oc1ccc2ncccc2c1`, at Large T antigen, the IC50 is > 100 µM (active). On to `CCCC(C(=O)Nc1ccc(S(=O)(=O)N2CCOCC2)cc1)c1ccccc1` (stereo not drawn), for which, at Protein skinhead-1, the IC50 is > 100 µM (inactive). Consider `CCOc1ccccc1C(=O)Nc1cc2c(cc1N1CCCC1)n(CC)c(=O)n2CC`, for which the CC50 – broadly, the concentration at which the toxic effect on the cells reaches its halfway point – in test [1] was 13.5 µM (active). In the case of `Cc1ccc2ncnc(Nc3cccc([N+](=O)[O-])c3)c2c1`, the IC50 at Protein skinhead-1 is > 100 µM (inactive).

`O=C1c2ccccc2C(=O)N1CCCCN(C(=O)c1cccc([N+](=O)[O-])c1)c1ccc(Cl)cc1`: the CC50 in [1] is 43.7 µM (active). Regarding `COc1ccc(N2C(=O)/C(=C/c3ccc([N+](=O)[O-])cc3)C=C2c2ccccc2)cc1`, on Protein skinhead-1, the IC50 is > 100 µM (inactive). Same read-out and setting: the value for `Cc1ccccc1-c1noc(-c2cccs2)n1` was 7.91 µM (active); that for `CCCCCOc1ccccc1C(=O)NCCC(=O)O` was > 100 µM (inactive).

For `O=S(=O)(c1ccccc1)N1CCC(c2nc(O)c3nnn(Cc4c(F)cccc4Cl)c3n2)CC1`, the CC50 in test [1] was 26 µM (active). For `O=C(C/C=N\OCc1ccc([N+](=O)[O-])cc1)Nc1ccccc1`, the IC50 in the test “cells” was 16.1 µM (active). Turning to `COc1cc2ccccc2cc1C(=O)Nc1nccs1`, the EC50 (commonly the midpoint of the concentration-response curve) is 22.8 µM (active) in the test on H4 and 59.4 µM (active) in test [2]. Also, the IC50 on Protein skinhead-1 was 5.97 µM (active). On to `COc1ccc(-c2[nH]nc3c2C(c2ccsc2)C(C#N)=C(N)O3)cc1` (stereo not drawn), for which the EC50 on Protein RecA is 13.3 µM (active). Further, the AC50 (usually the midpoint of the concentration-response curve, whichever way the signal moves) in test [3] is 19.2 µM (active). In the same order, the values of `Cc1cc(OC(=O)c2ccccc2)n(CCC#N)n1` are 2.67 µM (active) and 8.7 µM (active). In the same order, the values of `CCCCCCOc1ccc(C(=O)n2cnc(N)n2)cc1` are 1.46 µM (active) and 21.6 µM (active). In the same order, the values of `O=C(CCl)Nc1cccc(CP(=O)(c2ccccc2)c2ccccc2)c1` are 18.4 µM (active) and 93.2 µM (active). Take `CCOc1cc(C=O)cc(N=Nc2cccc([N+](=O)[O-])c2)c1O`: the EC50 was 4.04 µM (active) in test [4] and > 150 µM (inactive) in test [5]. Besides, the IC50 in the test “cells” is 7.46 µM (active). In the case of `Cc1ccc(C(=O)C(OC(=O)CN2C(=O)c3ccccc3C2=O)c2ccccc2)cc1C` (stereo not drawn), the EC50 on Protein RecA was > 380 µM (inactive). The AC50 in test [3] is 66.8 µM (active). With `CCC(C)c1ccc(NC(=O)Nc2cccnc2)cc1` (stereo not drawn), the CC50 in test [1] was 22.7 µM (active). Take `COC(=O)C1=C(C)N(c2ccc(F)c(Cl)c2)C(=O)C1`: the EC50 in [6] is 206 µM (active). Take `Cc1ccc(S(=O)(=O)NCC2CCC(C(=O)NCCCN3CCOCC3)CC2)cc1` (stereo not drawn): at Protein RecA, the EC50 was > 380 µM (inactive). Further, in [3], the AC50 is > 380 µM (inactive). Regarding `Nc1cc(S(=O)(=O)c2ccc(O)c(N)c2)ccc1O`, the IC50 at Large T antigen was 20.5 µM (active). For the compound `CCOC(=O)N1CCN(c2ccc([N+](=O)[O-])cc2)CC1`, the CC50 in test [1] is 26 µM (active). In addition, the IC50 in test [7] was 30.7 µM (not active).

In the case of `CCCCC(=O)Nc1cccc(-c2csc(-c3ccccc3)n2)c1`, the CC50 in test [1] was 23.9 µM (active). As for `O=C(O)CN1C(=O)/C(=C\c2cccc(OC(=O)c3ccco3)c2)SC1=S`, the half-maximal effective concentration (EC50) on Protein RecA is 22.6 µM (active). The AC50 in test [3] was 29.5 µM (active). Turning to `CCOC(=O)c1nnc(-c2cccs2)nc1Oc1ccc(Cl)cc1`, the EC50 at Protein RecA was 16.5 µM (active). Moreover, the AC50 in [3] is 24.5 µM (active). Turning to `CCC(=O)Nc1cccc(-c2nc3ccc(C)cc3o2)c1`, in test [1], the CC50 is 39.4 µM (active). Regarding `C=CC[C@H](CC(=O)N(CCO)Cc1ccccc1)C(=O)NC[C@H](OC(=O)[C@@H](CC=C)Cc1ccc(F)cc1)c1ccccc1`, the AC50 in [8] is 10.7 µM (active).

Regarding `C=CCn1c(=S)[nH]c2scc(-c3ccco3)c2c1=O`, the IC50 at Large T antigen is 24.1 µM (active). `Fc1ccc(OCc2nc(-c3cccs3)no2)cc1`: the IC50 on Protein skinhead-1 was 24.5 µM (active). Turning to `Cc1onc(-c2c(Cl)cccc2Cl)c1C(=O)N[C@@H]1C(=O)N2[C@@H]1SC(C)(C)[C@@H]2C(=O)O` [DICLOXACILLIN SODIUM], in [8], the AC50 is 46.7 µM (active).

As to `CCOC(=O)C1CCN(c2cc3c(cc2NC(=O)c2ccccc2Br)n(C)c(=O)n3C)CC1`, the IC50 with H9c2 was 67.2 µM (inactive). Further, the concentration at half-maximal activity (AC50) in test [8] was 21.3 µM (active). Regarding `COc1ccc(Cl)cc1NC(=O)C(C)OC(=O)c1ccc(NS(=O)(=O)c2ccc3[nH]c(O)nc3c2)cc1` (stereo not drawn), in test [1], the CC50 was 15.8 µM (active).

Values taken from ChEMBL document CHEMBL1201862, “PubChem BioAssay data set” (2004).
